Residue numbers refer to the chain shown, from its start.
Assays:
[1] = target: T1, Aldo-keto reductase family 1 member C2 (Homo sapiens, UniProt P52895); test: Inhibition of human recombinant AKR1C2-mediated NADP+-dependent oxidation of S-(+)-1,2,3,4-tetrahydro-1-naphthol
T1 sequence (P52895 whole entry): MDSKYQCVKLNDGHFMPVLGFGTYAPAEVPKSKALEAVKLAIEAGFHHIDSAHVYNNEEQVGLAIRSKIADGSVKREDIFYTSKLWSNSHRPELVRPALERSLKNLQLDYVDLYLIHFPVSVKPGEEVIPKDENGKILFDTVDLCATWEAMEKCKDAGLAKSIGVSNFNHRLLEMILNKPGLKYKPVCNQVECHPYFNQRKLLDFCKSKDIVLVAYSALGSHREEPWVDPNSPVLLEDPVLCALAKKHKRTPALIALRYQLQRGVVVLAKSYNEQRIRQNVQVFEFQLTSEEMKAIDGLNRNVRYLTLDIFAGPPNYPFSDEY

[2] = target: T2, Prostaglandin G/H synthase 2 (Mus musculus, UniProt Q05769)
T2 sequence (Q05769 whole entry): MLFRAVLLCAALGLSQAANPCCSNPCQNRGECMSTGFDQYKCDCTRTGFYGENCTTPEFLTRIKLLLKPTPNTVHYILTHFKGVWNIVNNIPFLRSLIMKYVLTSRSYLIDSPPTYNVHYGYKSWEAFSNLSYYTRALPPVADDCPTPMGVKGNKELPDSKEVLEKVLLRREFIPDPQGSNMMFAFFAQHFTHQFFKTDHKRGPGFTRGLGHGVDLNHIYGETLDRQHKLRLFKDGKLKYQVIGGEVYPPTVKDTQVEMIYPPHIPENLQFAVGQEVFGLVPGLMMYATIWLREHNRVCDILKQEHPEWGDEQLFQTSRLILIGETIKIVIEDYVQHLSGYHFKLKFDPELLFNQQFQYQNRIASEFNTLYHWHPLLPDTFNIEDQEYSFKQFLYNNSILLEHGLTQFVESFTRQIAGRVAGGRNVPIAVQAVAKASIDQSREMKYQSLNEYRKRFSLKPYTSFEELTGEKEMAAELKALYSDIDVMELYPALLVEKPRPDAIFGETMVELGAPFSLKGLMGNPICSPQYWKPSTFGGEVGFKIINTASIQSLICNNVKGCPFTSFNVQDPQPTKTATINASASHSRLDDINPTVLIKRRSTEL
Description: Inhibition of wild type mouse COX2 by discontinuous radioactive TLC assay

[3] = target: T3, Aldo-keto reductase family 1 member C3 (Homo sapiens, UniProt P42330); test: Inhibition of human recombinant AKR1C3-mediated NADP+-dependent oxidation of S-(+)-1,2,3,4-tetrahydro-1-naphthol
T3 sequence (P42330 whole entry): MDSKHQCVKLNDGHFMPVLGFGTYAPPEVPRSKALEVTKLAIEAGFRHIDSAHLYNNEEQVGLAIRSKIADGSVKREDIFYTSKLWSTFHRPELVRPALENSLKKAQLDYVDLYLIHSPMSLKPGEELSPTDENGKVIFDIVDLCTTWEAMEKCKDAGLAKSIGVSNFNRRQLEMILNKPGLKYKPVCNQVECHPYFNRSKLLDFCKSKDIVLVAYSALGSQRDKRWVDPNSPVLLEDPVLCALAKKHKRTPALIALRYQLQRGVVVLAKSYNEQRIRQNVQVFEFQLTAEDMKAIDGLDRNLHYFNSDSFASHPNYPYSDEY

[4] = target: T4, Prostaglandin G/H synthase 1 (Ovis aries, UniProt P05979)
T4 sequence (P05979 whole entry): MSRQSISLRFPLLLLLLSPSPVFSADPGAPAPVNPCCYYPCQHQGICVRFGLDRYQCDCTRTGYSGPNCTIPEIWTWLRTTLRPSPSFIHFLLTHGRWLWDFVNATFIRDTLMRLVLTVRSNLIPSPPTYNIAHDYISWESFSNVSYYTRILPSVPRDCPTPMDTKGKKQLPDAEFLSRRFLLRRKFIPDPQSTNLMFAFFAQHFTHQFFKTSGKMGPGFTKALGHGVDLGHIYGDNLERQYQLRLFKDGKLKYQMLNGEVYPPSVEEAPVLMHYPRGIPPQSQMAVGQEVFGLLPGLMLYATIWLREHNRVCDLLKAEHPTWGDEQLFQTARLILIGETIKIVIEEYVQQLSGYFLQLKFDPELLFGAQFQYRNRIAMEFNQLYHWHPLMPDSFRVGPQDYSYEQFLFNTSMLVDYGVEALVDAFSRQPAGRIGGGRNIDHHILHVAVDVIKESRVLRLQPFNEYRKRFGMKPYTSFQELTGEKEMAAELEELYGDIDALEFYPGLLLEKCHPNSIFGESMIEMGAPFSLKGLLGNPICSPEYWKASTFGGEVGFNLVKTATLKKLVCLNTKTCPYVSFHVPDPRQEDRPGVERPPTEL
Description: Inhibition of ovine COX1 by discontinuous radioactive TLC assay

[5] = target: T5, Aldo-keto reductase family 1 member C1 (Homo sapiens, UniProt Q04828); test: Inhibition of human recombinant AKR1C1-mediated NADP+-dependent oxidation of S-(+)-1,2,3,4-tetrahydro-1-naphthol
T5 sequence (Q04828 whole entry): T1 sequence (P52895 whole entry) with V38T, H47R, V54L, S87C, M151V, H170R, L172Q

Row | SMILES | IC50 [1] | IC50 [2] | IC50 [3] | IC50 [4] | IC50 [5]
1 | Cc1c(CC(=O)O)c2cc(F)ccc2n1C(=O)c1ccc(Cl)cc1 | 6.19 µM | 0.09 µM | 0.25 µM | 0.49 µM | 
2 | CCc1c(CCC(=O)O)n(C(=O)c2ccc(Cl)cc2)c2ccc(OC)cc12 |  | 7 µM |  |  | 
3 | COc1ccc2c(c1)c(CC(=O)O)cn2C(=O)c1ccc(Cl)cc1 |  | 3.27 µM |  | 15.3 µM | > 100 µM

Reference: ChEMBL document CHEMBL2321830 (J Med Chem, 2013)
